This note sets out measurements from patent US20250312416A1, “METHOD AND PHARMACEUTICAL COMPOSITION FOR CARTILAGE REGENERATION” (FAR EASTERN MEMORIAL HOSPITAL, priority 2024, published 2025).

Holding throughout (assay type): cell-based, human
For one assay, the system named is ADSCs. Kind of assay: Cellular uptake of fluorescently labeled peptides by fluorescence microscopy. The protocol:
Cell-penetrating properties of CXCL14-P and CXCL12-P peptides in ADSCs were analyzed. ADSCs were incubated with 10 ng of FITC-conjugated peptides at 37° C. for one day, followed by refreshing the chondrogenic medium. Peptide internalization was evaluated through fluorescence microscopy on days 1, 3, and 7.
We further explored whether peptides derived from CXCL14 and CXCL12 have the capacity to induce chondrogenesis in MSCs from different sources. To assess their potential, ADSCs were utilized in the study to evaluate the chondrogenic capacity of CXCL14-P and CXCL12-P on day 7 (FIG. 10A). […] FIG. 11 illustrates the cell-penetrating properties of CXCL14-P and CXCL12-P peptides in ADSCs, analyzed at different time points. ADSCs were incubated with FITC-conjugated peptides for one day, after which the chondrogenic medium was refreshed. […] Collectively, these observations indicate that CXCL14-P and CXCL12-P have the ability to stimulate chondrogenesis and further amplify the effects of TGF-β during the chondrogenic process.

In the next assay the test system is ADSC spheroids. Put plainly: Immunofluorescence / confocal microscopy of chondrogenic proteins in ADSC spheroids. The conditions noted are these: 3D ADSC spheroids, by day 7. The protocol:
Both side views (observed in the x and z plane) and bottom views (observed in the […]) of the images are provided. The scale bar is set at 500 μm.
ADSCs were treated with CXCL14-P, CXCL14-P1, or CXCL14-P2, respectively, at a concentration of 10 ng for 24 hours, after which the medium was replaced with fresh peptide-free medium. On day 7, total RNA was extracted, and real-time PCR analysis was performed to assess the expression levels of key chondrogenic markers, including ACAN, COL2A1, SOX9, and COMP. Gene expression levels were quantified using a LightCycler system (Roche Applied Science), with fold changes calculated relative to untreated control ADSCs. […] Immunofluorescence staining was performed to detect Collagen Type II, SOX9, COMP, and nuclei (Hoechst 33342) in 3D ADSC spheroids (middle panel).
(FIG. 3). […] Moreover, fluorescence confocal microscopy was employed to detect protein patterns and confirm the levels of SOX9, type II collagen, and aggrecan proteins in ADSC spheroids. […] Finally, to investigate whether the CXCR4 receptor of CXCL12/CXCL14 confers chondrogenic signaling during chondrogenesis, we treated ADSCs with a CXCR4 agonist for 7 days.
Extracellular vesicles (EVs) derived from MSCs hold significant potential for repairing damaged tissues. In this study, we explored whether EVs from ADSCs could effectively enhance chondrogenesis and promote cartilage repair. Immunofluorescence staining was used to assess protein levels of Collagen Type II (green), SOX9 (red), COMP (indigo), and Hoechst 33342 (gray) in 3D ADSC spheroids treated with MSC-EVs derived from CXCL14 peptide-primed ADSCs (CXCL14-P-MSC-EVs) at various time points. […] To further explore the cartilage repair functions of EVs from CXCL14-P-treated ADSCs and the encapsulation of the transcription factor SOX9 within MSCs and purified EVs, we performed in vivo studies.

The subject of a further assay is clinical-grade ADSCs. Put plainly: Alcian blue staining of chondrogenic pellets (GAG), ADSCs. The protocol:
The chondrogenic differentiation of pellets containing clinical-grade ADSCs was assessed through Alcian blue staining.
The chondrogenic differentiation of pellets containing clinical-grade ADSCs was evaluated using Alcian blue staining.
Alcian blue staining was used to assess the chondrogenic differentiation of ADSC pellets. […] Treatment with CXCL14-PM1, CXCL14-PM2, CXCL14-PM3, and CXCR4-PM1 was sufficient to enhance the expression of chondrogenic genes in ADSCs. On day 7, real-time PCR was performed to analyze the expression of key chondrogenic markers, including SOX9, COL2A1, COMP, ACAN, ITGB1, CXCL14, and CXCR4, in ADSCs treated with these modified peptides. ADSCs were exposed to distinct peptide modifications derived from CXCL12, CXCL14, and CXCR4 at a concentration of 10 ng for a one-day treatment, after which the medium was replaced with fresh peptide-free medium. At the end of the treatment period, RNA was extracted to evaluate the expression levels of chondrogenesis-related cytokine genes. Gene expression quantification was performed using a LightCycler system (Roche Applied Science), and fold changes were calculated relative to untreated control ADSCs. […] FIG. 16(D) provides a summary of the results for alanine substitution with positively or negatively charged amino acids in CXCL12, CXCL14, and CXCR4 peptides.
To assess differentiation capacity, single-cell suspensions from cultured IPFP-MSCs and ADSCs were cultivated in chondrogenic medium. Alcian Blue staining was performed on day 7 to evaluate chondrogenic differentiation. The chondrogenic differentiation test was measured gene expressions of ACAN, COL2A1, SOX9, COMP, ITGB1, CXCL14 and SOSTDC1.

Entries after “also recorded” stand apart in the source; their conditions may differ.

On to ITTKSVSRYRGQEH [CXCL14-P], for which the “cellular uptake / detectability of peptide” value in the assay with ADSCs (10 ng FAM-labeled, 24 hours then peptide-free medium, monitored to day 7) is given as “detectable on day 1 but became undetectable by day 7”. The “peptide internalization (cell penetration)” value in the assay on ADSCs (10 ng FITC-conjugated peptide, 37° C. for one day, observed days 1, 3, 7) was “remain detectable up to day 7”. The “Collagen Type II, SOX9, and COMP expression” value in the assay with ADSC spheroids is listed as “increase”. The “GAG content (Alcian blue)” value in the assay with clinical-grade ADSCs (in the absence of TGF-β) is on record as “evident”; in the assay with clinical-grade ADSCs (in the presence of TGF-beta), “significantly increased”; in the assay on clinical-grade ADSCs (peptides compared to CXCL14/CXCL12 proteins, listed as CXCL14 peptide) it was “significantly higher; also recorded: greater ability”.
